From article PMC11320734 (ACS Pharmacology & Translational Science, 2024)
In brackets after ≈: the same amount, converted by molar mass.

How the values were obtained:
hCB1R = hCB1R (Homo sapiens, UniProt P21554); test: cell-based; conditions: Table 1; mean ± SD; read-out: EC50 hCB1R (cAMP assay)
cynomolgus CB2R = cynomolgus CB2R (Macaca fascicularis, UniProt G7NVV5); test: cAMP assay in CHO cells; format: cell-based; conditions: mean ± SD; read-out: EC50 cAMP assay, monkey CB2R
FAAH = FAAH (Homo sapiens, UniProt O00519); test: Endocannabinoid target profiling: FAAH; format: biochemical; conditions: screening concentration 10 μM
FAAH, sequence (O00519 whole entry): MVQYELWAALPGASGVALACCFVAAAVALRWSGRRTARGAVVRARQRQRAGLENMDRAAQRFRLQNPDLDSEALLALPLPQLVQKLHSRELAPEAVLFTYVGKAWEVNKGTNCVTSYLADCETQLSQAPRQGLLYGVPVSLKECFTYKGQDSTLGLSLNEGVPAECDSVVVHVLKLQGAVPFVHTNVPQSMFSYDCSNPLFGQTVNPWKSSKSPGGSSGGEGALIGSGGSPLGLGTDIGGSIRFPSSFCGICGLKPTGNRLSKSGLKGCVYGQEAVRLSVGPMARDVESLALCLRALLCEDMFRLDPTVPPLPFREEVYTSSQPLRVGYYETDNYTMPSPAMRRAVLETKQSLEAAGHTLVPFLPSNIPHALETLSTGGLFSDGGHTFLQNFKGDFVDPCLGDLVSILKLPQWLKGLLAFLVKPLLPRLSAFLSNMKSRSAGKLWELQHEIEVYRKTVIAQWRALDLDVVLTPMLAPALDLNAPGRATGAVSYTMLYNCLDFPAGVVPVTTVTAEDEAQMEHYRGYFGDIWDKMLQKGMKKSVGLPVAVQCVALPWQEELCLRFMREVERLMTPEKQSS

TRPA1 = TRPA1 (Homo sapiens, UniProt O75762); test: Endocannabinoid target profiling: TRPA1; conditions: Table S1; read-out: TRPA1 (Ki, IC50)
TRPA1, sequence (O75762 whole entry, species assumed): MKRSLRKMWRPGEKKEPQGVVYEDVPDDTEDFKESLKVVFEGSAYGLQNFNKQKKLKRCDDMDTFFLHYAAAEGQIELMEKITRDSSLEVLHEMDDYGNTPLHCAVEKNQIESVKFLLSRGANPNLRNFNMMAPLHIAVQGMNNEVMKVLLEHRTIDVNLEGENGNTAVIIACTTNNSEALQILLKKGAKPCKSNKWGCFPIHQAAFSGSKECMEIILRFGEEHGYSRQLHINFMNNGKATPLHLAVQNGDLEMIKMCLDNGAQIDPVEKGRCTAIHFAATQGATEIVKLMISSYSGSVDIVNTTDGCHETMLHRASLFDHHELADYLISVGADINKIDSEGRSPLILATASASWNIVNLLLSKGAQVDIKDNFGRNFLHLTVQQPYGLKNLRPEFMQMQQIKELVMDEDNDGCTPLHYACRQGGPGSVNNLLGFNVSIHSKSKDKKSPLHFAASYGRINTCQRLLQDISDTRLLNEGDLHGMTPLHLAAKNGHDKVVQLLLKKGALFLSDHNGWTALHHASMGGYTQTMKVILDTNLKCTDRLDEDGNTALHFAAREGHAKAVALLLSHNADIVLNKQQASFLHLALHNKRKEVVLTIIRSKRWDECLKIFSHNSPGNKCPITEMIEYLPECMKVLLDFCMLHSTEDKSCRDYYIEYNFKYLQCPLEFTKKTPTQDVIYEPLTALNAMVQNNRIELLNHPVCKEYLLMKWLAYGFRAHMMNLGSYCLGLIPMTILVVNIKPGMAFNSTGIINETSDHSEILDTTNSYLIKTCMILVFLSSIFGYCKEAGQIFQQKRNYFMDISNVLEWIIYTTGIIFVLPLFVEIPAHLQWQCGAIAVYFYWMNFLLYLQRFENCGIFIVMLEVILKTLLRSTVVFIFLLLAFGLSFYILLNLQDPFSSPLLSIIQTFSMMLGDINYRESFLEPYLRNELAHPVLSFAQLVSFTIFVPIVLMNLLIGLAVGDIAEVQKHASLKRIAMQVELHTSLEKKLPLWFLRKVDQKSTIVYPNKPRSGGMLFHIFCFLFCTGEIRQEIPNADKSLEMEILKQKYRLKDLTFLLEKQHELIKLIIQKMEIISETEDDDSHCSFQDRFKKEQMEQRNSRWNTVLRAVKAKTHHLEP

[1] = Lyophilization solubility assay (LYSA); format: physicochemical; conditions: aqueous buffer, thermodynamic from solid; kinetic, phosphate buffer pH 6.5
Procedure: For the determination of the octanol/water distribution coefficient (logD), the carrier-mediated distribution system (CAMDIS)-assay was used as described elsewhere.[38] Kinetic and thermodynamic solubilities were assessed using the lyophilization solubility assay (LYSA) and thermodynamic solubility assay (THESA), respectively. For the LYSA, the solubility of RNB- 61 in phosphate buffer at pH 6.5 from an evaporated 10 mM DMSO compound stock solution was measured. Two aliquots of the test compounds were dried and dissolved in phosphate buffer at pH 6.5. The solutions were then filtered and diluted (3 different dilution levels for each compound) before high throughput mass spectrometry (MS) analysis was performed in an Agilent RapidFire system. Each test compound was quantified using a 6-point calibration curve prepared with the same DMSO starting solution. For THESA, RNB-61 (8.6 mg per mL solvent/vehicle) was stirred in HPLC vials (9 × 12 × 32 mm, Waters) at 350 rpm for 15 h. The presence of solid particles was determined by microscopic analysis of 10 μL samples. If the active pharmacological ingredient (API) was completely dissolved, more solid API was added before stirring for another 15 h. This step was repeated for up to 96 h or until residual solid particles could be detected. […] The filtrates were diluted in ethanol and analyzed by ultra-performance liquid chromatography (UPLC). […]

human P-gp = biological target: T1, human P-gp (Homo sapiens, UniProt P08183); test: P-gp assay in transfected LLC-PK1 cells; format: in vitro ADME; conditions: read-out: P-gp transporter ER human
T1 construct: expressed in transfected cells; host or cells: LLC-PK1 (porcine kidney epithelial) cells
Procedure: (§1) The general permeability of the compound was assessed using the parallel artificial membrane permeability (PAMPA) assay and the permeability-glycoprotein (P-gp) assay was used to specifically test for brain penetration. PAMPA data were generated as previously reported by our group.[44] The P-gp assay, which evaluates the brain penetration of test compounds, was performed as described elsewhere.[45] Briefly, transfected porcine kidney epithelial (LLC-PK1) cells expressing human or mouse P-gp were cultured on 96-well semipermeable filter membrane plates (Millipore, Darmstadt, Germany). Cells formed a polarized monolayer with tight junctions that acted as a barrier between apical and basolateral compartments. P-gp was expressed in the apical-facing membrane of the monolayer (tightness confirmed using Lucifer yellow). […] The effect of P-gp was measured by expressing the efflux ratio of the unidirectional A > B and B > A Papp values. The mean permeability (A > B and B > A Papp) was determined in the absence of P-gp via the addition of the selective P-gp inhibitor, tariquidar.

mouse P-gp = biological target: T2, mouse P-gp (Mus musculus, UniProt P21447); test: P-gp assay in transfected LLC-PK1 cells; format: in vitro ADME; conditions: read-out: P-gp transporter ER mouse
T2 construct: expressed in transfected cells; host or cells: LLC-PK1 (porcine kidney epithelial) cells
T2 sequence (P21447 whole entry): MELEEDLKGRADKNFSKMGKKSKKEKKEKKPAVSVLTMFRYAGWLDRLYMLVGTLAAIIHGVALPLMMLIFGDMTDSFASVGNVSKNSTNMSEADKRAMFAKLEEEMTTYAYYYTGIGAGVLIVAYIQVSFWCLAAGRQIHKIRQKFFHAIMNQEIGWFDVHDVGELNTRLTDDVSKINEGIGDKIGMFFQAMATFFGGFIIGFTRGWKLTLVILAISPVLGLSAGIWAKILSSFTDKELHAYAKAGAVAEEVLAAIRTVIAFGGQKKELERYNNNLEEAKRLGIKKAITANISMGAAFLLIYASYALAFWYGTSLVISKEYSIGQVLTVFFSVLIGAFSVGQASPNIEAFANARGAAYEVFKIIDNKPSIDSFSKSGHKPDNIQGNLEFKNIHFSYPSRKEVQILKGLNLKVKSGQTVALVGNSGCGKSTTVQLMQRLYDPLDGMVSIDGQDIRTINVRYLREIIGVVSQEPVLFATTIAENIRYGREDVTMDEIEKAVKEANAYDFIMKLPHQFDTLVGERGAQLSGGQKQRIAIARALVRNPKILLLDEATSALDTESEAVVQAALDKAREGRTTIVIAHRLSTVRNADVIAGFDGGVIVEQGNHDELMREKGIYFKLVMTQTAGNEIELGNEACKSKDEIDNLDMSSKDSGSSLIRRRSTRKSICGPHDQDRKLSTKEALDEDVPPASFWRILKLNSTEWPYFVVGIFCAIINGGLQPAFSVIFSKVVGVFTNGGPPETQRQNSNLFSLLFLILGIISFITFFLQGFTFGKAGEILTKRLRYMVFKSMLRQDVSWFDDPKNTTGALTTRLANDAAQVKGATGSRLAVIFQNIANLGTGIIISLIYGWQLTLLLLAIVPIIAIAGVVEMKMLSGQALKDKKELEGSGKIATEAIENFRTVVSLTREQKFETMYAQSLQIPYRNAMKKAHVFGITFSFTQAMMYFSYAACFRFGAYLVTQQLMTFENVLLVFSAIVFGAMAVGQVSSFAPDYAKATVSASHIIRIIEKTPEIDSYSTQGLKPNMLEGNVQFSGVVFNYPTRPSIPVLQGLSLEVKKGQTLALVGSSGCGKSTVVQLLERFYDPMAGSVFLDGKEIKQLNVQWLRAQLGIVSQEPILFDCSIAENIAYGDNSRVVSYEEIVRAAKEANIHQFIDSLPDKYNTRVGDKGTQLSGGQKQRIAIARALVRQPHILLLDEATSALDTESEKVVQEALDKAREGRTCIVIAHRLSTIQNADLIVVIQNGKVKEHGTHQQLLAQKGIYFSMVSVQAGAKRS
Procedure: as §1

Microsomal clearance = format: in vitro ADME; conditions: human, human microsomes; Table 1
[2] = Hepatocyte clearance assay; format: in vitro ADME
Procedure: The hepatocyte clearance assay was performed as previously described.[39] For mice hepatocytes, the suspension cultures were either freshly prepared by liver perfusion or prepared from cryopreserved hepatocyte batches (pooled C57BL6 mouse hepatocytes were purchased from BioreclamationIVT (NY, USA)). For human hepatocytes, commercially available, pooled (5–20 donors), cryopreserved samples from nontransplantable liver tissues were used. For the suspension cultures, Nunc U96 PP-0.5 mL (Nunc Natural, 267245) plates were used, which were incubated in a Thermo Forma incubator from Fischer Scientific (Wohlen, Switzerland) equipped with shakers from Variomag Teleshake (Sterico, Wangen, Switzerland) for maintaining cell dispersion. The cell culture medium was William’s media supplemented with glutamine, antibiotics (100 IU/mL Penicillin-Streptomycin, Gibco), insulin, dexamethasone, and 10% fetal calf serum (FCS). Incubations of a test compound at 1 μM test concentration in suspension cultures of 1 × 10^6 cells mL^–1 (∼1 μg μL^–1 protein concentration) were performed in 96-well plates and shaken at 900 rpm for up to 2 h in a 5% CO2 atmosphere at 37 °C. After 3, 6, 10, 20, 40, 60, and 120 min, a 100 μL cell suspension in each well was quenched with 200 μL methanol containing an internal standard. Samples were then cooled and centrifuged before analysis by LC-MS/MS. […]

GSH adduct formation = format: in vitro ADME, rat
Procedure: Cytochrome P450 (CYP) assays were conducted as previously described.[41] In brief, RNB-61 was incubated at a range of concentrations with the following components: pooled human liver microsomes, CYP probe substrate around the reported Km, and NADPH with a final concentration: 1 mM in 100 mM sodium phosphate buffer (pH 7.4). The conditions were optimized for a linear metabolic rate for the probe substrate reactions. The analysis of the samples was carried out by LC-MS/MS. The assays generated two endpoints: IC50 (μM) and percent inhibition at the highest acceptable test concentration (typically 50 μM; lower if the highest concentration data are rejected due to insolubility). […] (GSH) adduct formation data was assessed as reported in a previous study.[42] Briefly, RNB-61 was incubated with human liver microsomes to form reactive metabolites, and glutathione was added as a nucleophile to convert the reactive metabolites into stable conjugates that could be analyzed by MS.

hERG channel = hERG channel (Homo sapiens, UniProt Q12809); test: hERG inhibition; format: cell-based
hERG channel, sequence (Q12809 whole entry): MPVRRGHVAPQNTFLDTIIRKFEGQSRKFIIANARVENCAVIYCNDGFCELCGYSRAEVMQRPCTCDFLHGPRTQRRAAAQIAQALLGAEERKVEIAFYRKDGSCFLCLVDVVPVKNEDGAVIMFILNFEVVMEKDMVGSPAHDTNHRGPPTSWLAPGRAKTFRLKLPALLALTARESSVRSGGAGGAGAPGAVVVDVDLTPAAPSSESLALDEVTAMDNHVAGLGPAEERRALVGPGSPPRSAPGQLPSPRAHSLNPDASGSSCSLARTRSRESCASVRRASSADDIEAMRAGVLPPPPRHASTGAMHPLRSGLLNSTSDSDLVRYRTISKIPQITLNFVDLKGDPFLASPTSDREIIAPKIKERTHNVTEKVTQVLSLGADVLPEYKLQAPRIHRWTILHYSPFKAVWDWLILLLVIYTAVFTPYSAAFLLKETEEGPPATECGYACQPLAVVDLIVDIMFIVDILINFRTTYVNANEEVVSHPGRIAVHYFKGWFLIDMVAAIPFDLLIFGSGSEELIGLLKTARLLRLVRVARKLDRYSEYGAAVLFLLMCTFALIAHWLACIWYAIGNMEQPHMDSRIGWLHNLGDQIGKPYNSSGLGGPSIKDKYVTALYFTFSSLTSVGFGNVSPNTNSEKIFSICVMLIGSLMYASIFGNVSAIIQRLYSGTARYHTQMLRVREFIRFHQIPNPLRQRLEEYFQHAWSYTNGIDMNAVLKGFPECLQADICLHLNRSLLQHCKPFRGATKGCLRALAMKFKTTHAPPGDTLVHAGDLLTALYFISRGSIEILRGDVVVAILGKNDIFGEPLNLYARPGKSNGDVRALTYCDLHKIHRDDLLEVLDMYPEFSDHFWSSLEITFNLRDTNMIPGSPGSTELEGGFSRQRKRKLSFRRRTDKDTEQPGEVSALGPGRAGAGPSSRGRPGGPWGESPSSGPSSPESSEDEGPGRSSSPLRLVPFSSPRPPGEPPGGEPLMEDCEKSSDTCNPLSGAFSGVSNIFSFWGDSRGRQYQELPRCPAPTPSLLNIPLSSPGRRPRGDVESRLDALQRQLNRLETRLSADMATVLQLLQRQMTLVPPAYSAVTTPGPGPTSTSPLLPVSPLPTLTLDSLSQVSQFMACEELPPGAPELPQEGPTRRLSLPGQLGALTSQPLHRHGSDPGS

cynomolgus CB2R, sequence (G7NVV5 1-360): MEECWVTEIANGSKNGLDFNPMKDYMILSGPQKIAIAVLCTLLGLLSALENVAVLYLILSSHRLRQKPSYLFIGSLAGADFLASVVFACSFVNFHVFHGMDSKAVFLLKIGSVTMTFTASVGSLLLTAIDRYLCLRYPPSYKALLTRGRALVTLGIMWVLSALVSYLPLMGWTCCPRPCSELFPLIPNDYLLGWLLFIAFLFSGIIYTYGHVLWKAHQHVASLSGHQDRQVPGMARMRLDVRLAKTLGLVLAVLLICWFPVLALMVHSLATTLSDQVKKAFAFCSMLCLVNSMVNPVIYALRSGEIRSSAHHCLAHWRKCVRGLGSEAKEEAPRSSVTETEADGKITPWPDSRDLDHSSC
hCB1R, sequence (P21554 whole entry): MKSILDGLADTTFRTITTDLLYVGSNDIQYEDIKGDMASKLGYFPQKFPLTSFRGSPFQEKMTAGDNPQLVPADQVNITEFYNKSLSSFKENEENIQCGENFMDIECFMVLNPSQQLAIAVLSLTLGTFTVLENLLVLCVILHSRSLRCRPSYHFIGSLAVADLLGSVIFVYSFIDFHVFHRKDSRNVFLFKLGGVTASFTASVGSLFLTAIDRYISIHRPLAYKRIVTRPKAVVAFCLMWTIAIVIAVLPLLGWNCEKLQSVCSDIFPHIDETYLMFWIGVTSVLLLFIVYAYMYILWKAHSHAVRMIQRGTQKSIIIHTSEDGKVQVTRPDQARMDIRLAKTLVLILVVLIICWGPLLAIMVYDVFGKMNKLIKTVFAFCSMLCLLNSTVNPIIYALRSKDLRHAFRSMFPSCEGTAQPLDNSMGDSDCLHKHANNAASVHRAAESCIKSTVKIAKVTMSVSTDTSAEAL

Question: For Cn1c(C(C)(C)C)cc(=NC(=O)c2cc(C(F)(F)F)ccc2OCC(C)(C)O)n1CC1CCC1 [RNB-61], which EC50 (hCB1R) is on record?
Answer: > 10 µM

Question: What about the EC50 (cynomolgus CB2R) of the same molecule?
Answer: 0.0007 ± 3e-05 µM

Question: What about the “inhibition of EC hydrolysis by FAAH” value (FAAH) of the same molecule?
Answer: did not inhibit

Question: What about the IC50 (TRPA1) of the same molecule?
Answer: > 50 µM

Question: What about the solubility [1] of the same molecule?
Answer: 194 µg/mL (≈ 403 µM)

Question: What about the efflux ratio at 3 h (human P-gp) of the same molecule?
Answer: 40.6

Question: And the efflux ratio at 3 h (mouse P-gp)?
Answer: 26.8

Question: What about the microsomal CLint (Microsomal clearance) of the same molecule?
Answer: ≤ 10 µL/min/mg

Question: And the hepatocyte CLint at 1 μM ([2]; C57BL6, mouse)?
Answer: 48.5 µL/min/1e6 cells

Question: What about the hepatocyte CLint at 1 μM ([2]; human, pooled cryopreserved human hepatocytes in suspension culture) of the same molecule?
Answer: 85 µL/min/1e6 cells

Question: And the “GSH adducts (rat liver microsomes)” value (GSH adduct formation)?
Answer: did not form any adducts

Question: What about the hERG inhibition (hERG channel) of the same molecule?
Answer: >10 µM
